Assay results taken from patent US6271342A, “Sugar-modified cytostatics” (Bayer Aktiengesellschaft, priority 1995, dated 2001).
Where a name gives a salt, the structure may show the parent alone.

Legend:
B16F10 tumour = assay: In vivo test, survival of mice with transplanted B16F10 tumour; design: species or system mouse; settings: treated daily
Description: Mice are inoculated with 5×10^6 B16F10 tumour cells on day 0. The animals in which tumour cells are transplanted develop solid peritoneal tumours and are then treated daily with test substances or with the vehicle control. In the control group, 50% of the animals usually die between day 14 and 20. The test substances are administered in buffer or an organic solvent system comprising 20% methanol and 20% dimethyl sulphoxide in 0.7% sodium chloride solution.
The therapeutic result arises from the prolonging of the survival time of the treated animals. […] A therapeutic index can be estimated from the tolerance and prolonging of the survival time.

[1] = Acute toxicity, single administration; type: in vivo, nu/nu naked mice; settings: for acute toxicity detected: dose of 400 mg/kg; for acute toxicity detected / individual dose of the substances which can be tolerated: single administration; for Individual dose tolerated in mg/kg of mouse, i.v.: single administration i.v., aqueous solution; for Individual dose tolerated in mg/kg of mouse, i.p.: single administration i.p., solution in dimethyl sulphoxide
Description: Determination of the Acute Toxicity of Glycoconjugates of Batracyline (Single Administration)
The acute toxicity of the batracyline derivatives was determined on nu/nu naked mice.
The substances administered i.v., as aqueous solutions, and the substances administered i.p., as solutions in dimethyl sulphoxide, were injected once in concentrations of up to 400 mg of substance per kg of mouse.
The individual dose tolerated was calculated from the decrease in the weight of the animals up to 21 days after administration and from the number of animals surviving.

HT 29 = assay: Growth inhibition test (MTT) for cytotoxic properties; type: cell-based, human
Procedure, shortened: (§1)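 SW 480 and HT 29 cells in RPMI 1640 with 10% FCS were seeded at 50,000 cells/ml, grown 1 day at 37 °C, then exposed to compound added in DMSO. MTT (5 mg/ml stock) was applied after day 3 and day 6 for 5 h, and formazan absorbance was read at 540 nm. IC50 values reported.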

SW 480 = assay: as above; type: cell-based, human
Procedure, shortened: as §1

[2] = Cleavage kinetics with human blood (HPLC); type: in vitro ADME; settings: Table 2a; 37° C.; * = cleavage product is N-[D-alanyl]-batracyline
Source text: In Vitro Investigation of the Cleavability of the Glycoconjugates
Cleavage Kinetics With Human Blood

B 16 F 10 = assay: Growth inhibition test (MTT) for cytotoxic properties; type: cell-based, mouse; settings: Table 1b
Description: Growth Inhibition Test for Determination of the Cytotoxic Properties of Glycoconjugates of Batracyline and of Quinolone-a
The human colon cell lines SW 480 and HT 29 (ATCC no. CCL 228 and HBT-38) and the mouse melanoma cell line B 16 F 10 were cultured in Roux dishes in RPMI 1640 medium with addition of 10% FCS. The cultures were then trypsinized and taken up in RPMI plus 10% FCS to a cell count of 50,000 cells/ml. 100 μl of cell suspension/well were introduced into a 96 microwell plate and incubated for 1 day at 37° C. in a CO2 incubating cabinet. A further 100 μl of RPMI medium and 1 μl of dimethyl sulphoxide with the test substances were then added. The growth was checked after day 3 and day 6. 40 μl of MTT solution (3-(4,5-dimethylthiazol-2-yl)-2,5-diphenyltetrazoline bromide) with an initial concentration of 5 mg/ml of H2 O were added to each microwave. The plate was incubated for 5 hours in a CO2 incubating cabinet at 37° C. The medium was then sucked off and 100 μl of i-propanol/well were added. After shaking for 30 minutes with 100 μl of H2 O, the extinction was measured at 540 nm with a Titertek Multiskan MCC/340 (Flow).

[3] = Table 1a, glycoconjugates of batracyline

Description for SW-480: Cleavage Kinetics With Cells
(§2) 2.25 ml of PBS are incubated together with 225 μl of a cell suspension (30 mg/ml) and 25 μl of substrate stock solution (1 mg/ml in 3% dimethyl sulphoxide in PBS) at 37° C. After 1 hour and 24 hours, samples of in each case 1 ml are taken, mixed with 1 ml of ethanol and left to stand at 4° C. for 20 minutes. After centrifugation (5 minutes at 3500 rpm), 100 μl of supernatant are taken for the HPLC analysis.
Description for hepatoma: Cleavage Kinetics With Cells
as §2

Molecule: COc1cc([C@@H]2c3cc4c(cc3[C@@H](O[C@@H]3O[C@@H]5CO[C@@H](C)O[C@H]5[C@H](O)[C@H]3O)[C@H]3COC(=O)[C@H]23)OCO4)cc(OC)c1O [Etoposide, reference compound]
- % survivors Day 0 (B16F10 tumour; 5 mg/kg): 100%
- % survivors Day 20 (B16F10 tumour; 5 mg/kg): 90%
- % survivors Day 25 (B16F10 tumour; 5 mg/kg): 80%
- % survivors Day 30 (B16F10 tumour; 5 mg/kg): 80%
- % survivors Day 35 (B16F10 tumour; 5 mg/kg): 70%

Molecule: CC(NC(=O)C(N)CCCCNC(=S)Nc1ccc(OC2OC(CO)C(O)C(OCC(=O)[O-])C2O)cc1)C(=O)Nc1ccc2c(c1)CN1C(=O)c3ccccc3C1=N2.[Na+] [Example 3.33, N-{N^ε -[O-(3-O-Carboxymethyl-β-D-galactopyranosyl)-4-hydroxy-phenylamino-thiocarbonyl]-lysyl-D-alanyl}-batracyline, sodium salt]
- acute toxicity detected [1]: no acute toxicity
- individual dose of the substances which can be tolerated [1]: more than 200 mg of substance per kg of mouse
- Individual dose tolerated in mg/kg of mouse, i.v. [1]: > 400 mg/kg of mouse
- IC50 (HT 29; [3]): 70 µM
- IC50 (SW 480; [3]): 90 µM

Molecule: CC(NC(=O)C(CCCCNC(=S)Nc1ccc(OC2OC(CO)C(O)C(OCC(=O)[O-])C2O)cc1)NC(=S)Nc1ccc(OC2OC(CO)C(O)C(OCC(=O)[O-])C2O)cc1)C(=O)Nc1ccc2nc3n(c(=O)c2c1)Cc1ccccc1-3.[Na+].[Na+] [Example 6.81, N-{N^α,N^ε -Bis-[O-(3-O-carboxymethyl-β-D-galactopyranosyl)-4hydroxy-phenylamino-thiocarbonyl]-lysyl-D-alanyl}-batracyline, di-sodium salt]
- acute toxicity detected [1]: no acute toxicity
- individual dose of the substances which can be tolerated [1]: more than 200 mg of substance per kg of mouse
- Individual dose tolerated in mg/kg of mouse, i.v. [1]: > 400 mg/kg of mouse
- IC50 (HT 29; [3]): 30 µM
- IC50 (SW 480; [3]): 30 µM

Molecule: CC(NC(=O)C(CO)NC(=S)Nc1ccc(OC2OC(C)C(O)C(O)C2O)cc1)C(=O)Nc1ccc2c(c1)Cn1c-2nc2ccccc2c1=O [Example 7.3, N-{N-[O-(β-L-Fucosyl)-4-hydroxy-phenylamino-thiocarbonyl]-seryl-D-alanyl]-batracyline]
- % cleavage in human blood 1 hour [2]: 0%
- % cleavage in human blood 24 hours [2]: 0%
- % cleavage in hepatoma 1 hour (hepatoma): 0%
- % cleavage in hepatoma 24 hours (hepatoma): 0%
- % cleavage in SW-480 1 hour (SW-480): 0%
- % cleavage in SW-480 24 hours (SW-480): 0%
- IC50 (SW 480; [3]): 50 µM

Molecule: CO[C@H]1[C@H](O)[C@@H](Oc2ccc(Nc3nc(NCCO)nc(NCCCC[C@H](N)C(=O)N[C@H](C)C(=O)Nc4ccc5c(=O)n6c(nc5c4)-c4ccccc4C6)n3)cc2)O[C@@H](C)[C@H]1O.O=C(O)C(F)(F)F [Example 8.2, N-{N^ε -[4-Hydroxyethylamino-2-[O-(3-O-methyl-β-L-fucosyl)-4-hydroxy-phenylamino]-triazin-6-yl]-lysyl-D-alanyl}-batracyline, trifluoroacetate]
- individual dose of the substances which can be tolerated [1]: more than 200 mg of substance per kg of mouse
- Individual dose tolerated in mg/kg of mouse, i.p. [1]: > 200 mg/kg of mouse

Molecule: CO[C@H]1[C@H](O)[C@@H](Oc2ccc(NC(=S)NCCCC[C@@H](NC(=S)Nc3ccc(O[C@H]4O[C@@H](C)[C@@H](O)[C@@H](OC)[C@@H]4O)cc3)C(=O)NC3C=CCC4CN(c5c(F)cc6c(=O)c(C(=O)[O-])cn(C7CC7)c6c5Cl)CC43)cc2)O[C@@H](C)[C@H]1O.[Na+] (stereo partly drawn) [Example 11.12, N-{N^α,N^ε -Bis-[O-(3-O-methyl-β-L-fucosyl)-4-hydroxy-phenylamino-thiocarbonyl]-D-lysyl}-quinolone-a, sodium salt]
- % survivors Day 0 (B16F10 tumour; 1 mg/kg): 100%
- % survivors Day 20 (B16F10 tumour; 1 mg/kg): 90%
- % survivors Day 25 (B16F10 tumour; 1 mg/kg): 60%
- % survivors Day 30 (B16F10 tumour; 1 mg/kg): 30%
- % survivors Day 35 (B16F10 tumour; 1 mg/kg): 30%
- % survivors Day 0 (B16F10 tumour; 100 mg/kg): 100%
- % survivors Day 20 (B16F10 tumour; 100 mg/kg): 100%
- % survivors Day 25 (B16F10 tumour; 100 mg/kg): 100%
- % survivors Day 30 (B16F10 tumour; 100 mg/kg): 90%
- % survivors Day 35 (B16F10 tumour; 100 mg/kg): 90%

Molecule: CCC1(OC(=O)C(C)NC(=O)C(CCCCN)NC(=S)Nc2ccc(OC3OC(C)C(O)C(OCC(=O)O)C3O)cc2)C(=O)OCc2c1cc1n(c2=O)Cc2cc3ccccc3nc2-1 (stereo not drawn) [Example 18.2, 20-O-{N^α -[O-(3-O-Carboxymethyl-β-fucopyranosyl)-4hydroxy-phenylamino-thiocarbonyl]-lysyl-alanyl}-camptothecin]
- IC50 (B 16 F 10): 0.2 µM
- IC50 (HT 29; Table 1b): 0.02 µM
- IC50 (SW 480; Table 1b): 0.02 µM

Molecule: CCC1(OC(=O)C(C)NC(=O)C(CCCCNC(=S)Nc2ccc(OC3OC(C)C(O)C(OC)C3O)cc2)NC(=S)Nc2ccc(OC3OC(C)C(O)C(OC)C3O)cc2)C(=O)OCc2c1cc1n(c2=O)Cc2cc3ccccc3nc2-1 [Example 18.4, 20-O-{N^α,N^ε -Bis-[O-(3-O-methyl-β-L-fucopyranosyl)-4-hydroxy-phenylamino-thiocarbonyl]-lysyl-D-alanyl}-camptothecin]
- IC50 (B 16 F 10): 0.3 µM
- IC50 (HT 29; Table 1b): 0.02 µM
- IC50 (SW 480; Table 1b): 0.02 µM

Molecule: CCC1(OC(=O)C(NC(=O)C(CCCCNC(=S)Nc2ccc(OC3OC(C)C(O)C(OC)C3O)cc2)NC(=S)Nc2ccc(OC3OC(C)C(O)C(OC)C3O)cc2)C(C)C)C(=O)OCc2c1cc1n(c2=O)Cc2cc3ccccc3nc2-1 [Example 18.5, 20-O-{N^α,N^ε -Bis-[O-(3-O-methyl-β-L-fucopyranosyl)-4-hydroxy-phenylamino-thiocarbonyl]-lysyl-valinyl}-camptothecin]
- IC50 (B 16 F 10): 1 µM
- IC50 (HT 29; Table 1b): 0.2 µM
- IC50 (SW 480; Table 1b): 0.2 µM

Molecule: CCC1(OC(=O)[C@@H](NC(=O)[C@H](CCCCN)NC(=S)Nc2ccc(O[C@H]3O[C@@H](C)[C@@H](O)[C@@H](OCC(=O)O)[C@@H]3O)cc2)C(C)C)C(=O)OCc2c1cc1n(c2=O)Cc2cc3ccccc3nc2-1 (stereo partly drawn) [Example 18.9, 20-O-{N^α [O-(3-O-Carboxymethyl-β-L-fucopyranosyl)-4-hydroxy-phenylamino-thiocarbonyl]-lysyl-valinyl}-camptothecin, hydrochloride]
- IC50 (B 16 F 10): 0.7 µM
- IC50 (HT 29; Table 1b): 0.06 µM
- IC50 (SW 480; Table 1b): 0.08 µM

Molecule: CC[C@@]1(OC(=O)[C@H](C)NC(=O)[C@H](CCCCN)NC(=S)Nc2ccc(O[C@H]3O[C@@H](C)[C@@H](O)[C@@H](OC)[C@@H]3O)cc2)C(=O)OCc2c1cc1n(c2=O)Cc2cc3ccccc3nc2-1 [Example 18.14, 20-O-{N^α -[O-(3-O-Methyl-β-L-fucopyranosyl)-4-hydroxy-phenylamino-thiocarbonyl]-lysyl-alanyl}-camptothecin, hydrochloride]
- IC50 (B 16 F 10): 0.08 µM
- IC50 (HT 29; Table 1b): 0.01 µM
- IC50 (SW 480; Table 1b): 0.015 µM

Molecule: N-[Lysyl-D-alanyl]-batracyline, di-trifluoroacetate [Example 2.13]
- Individual dose tolerated in mg/kg of mouse, i.p. [1]: 50 mg/kg of mouse
- Individual dose tolerated in mg/kg of mouse, i.v. [1]: 25 mg/kg of mouse

Molecule: N-{N^α -[O-(3-O-Carboxymethyl-β-L-fucosyl)-4-hydroxyphenylaminothiocarbonyl] -N^α -[acetyl]-lysyl-D-alanyl batracyline [Example 5.9]
- % cleavage in human blood 1 hour [2]: 0%
- % cleavage in human blood 24 hours [2]: 0%
- % cleavage in hepatoma 1 hour (hepatoma): 0%
- % cleavage in hepatoma 24 hours (hepatoma): 0%
- % cleavage in SW-480 1 hour (SW-480): 0%
- % cleavage in SW-480 24 hours (SW-480): 0%
- IC50 (HT 29; [3]): 70 µM
- IC50 (SW 480; [3]): 70 µM

Molecule: N-{N^α,N^ε -Bis-[O-(β-L-fucosyl)-4-hydroxy-phenylamino-thiocarbonyl]-lysyl-D-ala nyl}-batracyline [Example 6.14]
- acute toxicity detected [1]: no acute toxicity
- individual dose of the substances which can be tolerated [1]: more than 200 mg of substance per kg of mouse
- Individual dose tolerated in mg/kg of mouse, i.p. [1]: > 400 mg/kg of mouse

Molecule: N-{N^ε -[O-(3,4-Di-O-methyl-β-D-galactopyranosyl)-4-hydroxy-phenylamino-thio carbonyl]-lysyl-D-alanyl}-batracyline, trifluoroacetate [Example 3.16]
- individual dose of the substances which can be tolerated [1]: more than 200 mg of substance per kg of mouse
- Individual dose tolerated in mg/kg of mouse, i.p. [1]: > 200 mg/kg of mouse
